Measured values as given in US7553881B2, “Dental materials based on radically polymerizable macromers with antimicrobial effect” (Ivoclar Vivadent AG, priority 2006, dated 2009).

Test system: Staphylococcus aureus
Test: Antimicrobial examination of photopolymerized, washed adhesive films on slides
Type: cell-based
Conditions: adhesive with 5 wt.-% MDPB, film washed two days with water
Method: The above adhesives were applied to a slide and photopolymerized using a UV lamp.
In a Petri dish, a modified slide was covered with 30 ml of a Staphylococcus aureus suspension in PBS (→10^7 bacteria cells/ml) and then incubated accompanied by light shaking (50 rpm) for 1 h at 37° C. The bacterial suspension was then drawn off and the slide was washed with pure PBS (15+15 ml). The slide was then dried, transferred to a new Petri dish, covered with 30 ml 1.5% nutrient agar and then incubated at 37° C. A blind sample was then analogously tested in each case using a slide which was coated with adhesive without biocidal macromer.
The mixture was applied to a slide and photopolymerized with the help of a UV lamp. […] A slide which had been coated with adhesive without the biocidal monomer MDPH served as comparison.

In the case of C=C(C)C(=O)OCCCCCCCCCCCC[n+]1ccccc1.[Br-] [MDPB, 12-methacryloyloxydodecylpyridinium bromide], the “bacterial growth on slide coated with polymerized adhesive” value is reported as “no bacterial decay attack on the film itself” and the “bacterial growth on slide coated with polymerized adhesive” value (listed as MDPH) is reported as “no bacterial attack”.
